Test system: tissue ingrowth, specifically angiogenesis and vascularization
Conditions: for conclusion on stimulation of wound healing: selenium at 0.25 ng/mm^3 of the implant, cobalt at 0.45 ng per mm^3 of the implant; for wound tissue / tissue ingrowth in the pores (histological sections): 3 μl per half implant of 70 μM salt in Hank's balanced salt solution on the closed pore
Description: Brushite and hydroxyapatite cuboid bioimplants (434±4 mg dry weight) with a 2D branched structure (Y-shape pore) were produced by cement printing following a method previously developed (Hölzel, 2005). The pore was 1.31 mm diameter and open in the middle of one smaller face and decreased in diameter to 1 mm as it branched in the centre of the block. One branch emerged on an adjacent face while the other was a ‘blind’ closed pore. 5 μl of 70 μM copper sulphate solution was deposited at the end of the blind closed pore of the Y as represented in FIG. 2B. This solution thus contained a total of […] of copper sulphate, i.e. 22 ng of copper ions. It was absorbed onto a small localised volume ca 5 mm^3, of the implant of dimensions 8×8×4 mm, (approximately 250 mm^3). This copper thus represented 88 ng per cm^3.
Brushite and hydroxyapatite materials were implanted in animals for 15 days in order to observe tissue ingrowth, specifically angiogenesis and vascularization. In order to facilitate observation of tissue ingrowth the implants were made in two mirror image halves that keyed into one another and split the pore cavity along its symmetrical axis (FIG. 2). A 5 μl solution of copper sulfate at low concentration (0.07 mM) was deposited at the end of the closed pore, dried, and implanted in the abdominal cavity (i.e., intraperitoneally) in mice for 15 days. The retrieved implants were opened and examined for tissue ingrowth (FIG. 2C). […] This is in comparison to control implants with no adsorption of copper (FIG. 2D).
Similar to the implants with copper as described above, solutions (3 μl per half implant) of manganese chloride, sodium selenium, silver nitrate, zinc chloride, and cobalt chloride diluted in Hank's balanced salt solution (vehicle) were adsorbed on the closed pore on each half. They were used respectively at 70 μM. The final amounts of the metals ranged from 10 to 200 ng per implant. These conditions were compared to vehicle (HBBS) as control and copper (70 μM)
After 15 days of implantation in peritoneal site in mice, the implants were retrieved and histological sections of the tissue ingrowth in the pores were processed.

[1] = 3 μl per half implant of 70 μM salt on the closed pore, 15 days peritoneal site in mice
[2] = 15 days peritoneal site in mice

Compound: [Cl][Co][Cl] [cobalt, cobalt chloride]
- microvessels by histology [1]: microvessels with transgression of inflammatory cells were observed
- conclusion on stimulation of wound healing: enhances particularly blood vessel formation

Compound: O=S(=O)([O-])[O-].[Cu+2] [copper sulfate]
- blood vessels observed (mouse, in vivo): No blood vessels were observed
- concentrations of copper suitable to encourage endothelial cell growth into a 1.3 mm diameter pore opening at the surface of an implant (mouse, in vivo): below 20 μg/mm^3
- mean blood vessel in-growth distance (mouse, in vivo): 4.3 mm
- mean distance over which blood vessels were observed to grow from the large pore opening to the closed pore end (mouse, in vivo): nearly the entire length
- tissue infiltrating the pore (mouse, in vivo): tissue rich in leukocytes and dead cells
- tissue ingrowth in the pores (mouse, in vivo): vascular tissue

Compound: O=[Se]([O-])[O-].[Na+].[Na+] [selenium, sodium selenium]
- wound tissue / tissue ingrowth in the pores (histological sections) [2]: immature wound tissue
- orientation of tissue ingrowth towards the closed (loaded) pore [1]: oriented towards the closed pore
- conclusion on stimulation of wound healing: may enhance tissue maturation

Compound: O=[N+]([O-])[O-].[Ag+] [silver, silver nitrate]
- orientation of tissue ingrowth towards the closed (loaded) pore [1]: no orientation towards the closed pore

Compound: [Cl-].[Cl-].[Zn+2] [zinc, zinc chloride]
- orientation of tissue ingrowth towards the closed (loaded) pore [1]: no orientation towards the closed pore

Compound: VEGF
- mean blood vessel in-growth distance (mouse, in vivo): 3.7 mm
- mean distance over which blood vessels were observed to grow from the large pore opening to the closed pore end (mouse, in vivo): nearly the entire length

Compound: manganese chloride
- wound tissue / tissue ingrowth in the pores (histological sections) [2]: a bloody tissue was formed in the pores

Source: patent US20090220566A1, “BIOIMPLANTS FOR USE IN TISSUE GROWTH” (priority 2006, published 2009)
